{
  "source": "patent US20240091267A1",
  "about": "“PRE-TREATMENT OF MSC WITH PPARB/DELTA AGONIST FOR TREATMENT OF ISCHEMIA-REPERFUSION INJURY” (Universite de Montpellier, priority 2020, published 2024)",
  "system": "MSC",
  "experiment": "Specific DNA fragmentation (Cell Death ELISA) in MSC exposed to H2O2-induced oxidative stress",
  "format": "cell-based, mouse",
  "conditions": "then 250 μM H2O2 4 h, vs naive MSC/H2O2",
  "experimental": "FIG. 6: Increased resistance to oxidative stress and survival of PPARβ/δ-primed MSC. (A) 48 hours after the seeding step in complete medium, MSC were subjected to H2O2-induced oxidative stress during 4 hours in minimal medium with serum deprivation. Pharmacological preconditioning of MSC using PPARβ/δ agonist or antagonist was performed 24 hours before oxidative stress exposure. At the end of the protocol, cell death or relative gene expression was analyzed measuring specific DNA fragmentation by ELISA and transcript amounts by RT-qPCR. (B): Scatter plot and bars were presented for specific DNA fragmentation quantification measured in MSC treated with H2O2 at various concentrations (0, 100, 150, 250, 500 and 750 μM) for 4 h in minimal medium. Data (normalized by the control value obtained with untreated MSC) were plotted as scatter dot blots and mean±SD for each group of treatment and compared using Kruskal-Wallis (Dunn's post hoc test) and were noted **** for p<0.0001 (250 group, n=11 independent cultures vs 0 group, n=13), ** for p=0.0013 (100 group, n=10 vs 0 group, n=13), ** for p=0.0015 (350 group, n=9 vs 0 group, n=13), **for p=0.0015 (500 group, n=9 vs 0 group, n=13) and * for p=0.0332 (750 group, n=3 vs 0 group, n=13). (C): Scatter plots and bars were presented for specific DNA fragmentation quantification measured in MSC treated with 250 μM of H2O2 pretreated with GW0742 or GSK0660 at 0.1 and 1 μM 24 hours before H2O2 exposure. […]\nDNA fragmentation was quantified in vitro on cell lysates with an enzyme-linked immunosorbent assay kit (Cell Death ELISA; Roche Diagnostics) designed to measure of histone-complexed DNA fragments (mono- and oligonucleosomes) out of the cytoplasm of cells after the induction of apoptosis.\nTo do this, MSC were submitted to an IR-simulated stress in vitro using various concentrations of H2O2 (100, 250, 350, 500 and 750 μM; see the protocol on FIG. 6A) for 4 hours. Apoptosis quantification was assessed by the mean of specific DNA fragmentation measurement for the different groups of treatment. […]",
  "data": [
    {"smiles": "COC(=O)c1sccc1S(=O)(=O)Nc1ccc(Nc2ccccc2)cc1OC", "note": "[GSK0660]", "values": [
      {"measurement": "Specific DNA fragmentation (MSC resistance to oxidative stress)", "setting": "MSC pretreated 24 h with 1 μM", "result": "impaired MSC resistance against H2O2-induced oxidative without reaching significance"}
    ]},
    {"smiles": "Cc1cc(SCc2sc(-c3ccc(C(F)(F)F)c(F)c3)nc2C)ccc1OCC(=O)O", "note": "[GW0742]", "values": [
      {"measurement": "Specific DNA fragmentation (MSC resistance to oxidative stress)", "setting": "MSC pretreated 24 h with 0.1 μM", "result": "did not modify the capacity of MSC to resist against oxidative stress"},
      {"measurement": "Specific DNA fragmentation (MSC resistance to oxidative stress)", "setting": "MSC pretreated 24 h with 1 μM", "result": "enhanced significantly MSC resistance"}
    ]}
  ]
}
